{"source": "patent US20210270815A1", "about": "“SPERM FERTILITY CAPACITY TEST AND SPERM DECAPACITATING SUPPLEMENT” (priority 2018, published 2021)", "key": {"boar spermatozoa [1]": {"tested_on": "boar spermatozoa", "test": "Zinc signature (FZ3, image-based flow cytometry) of boar spermatozoa after 4 hours of in vitro capacitation (IVC)", "type": "cell-based, Sus scrofa", "description": "Fresh boar spermatozoa were capacitated using a protocol that rendered them capable of recognizing and binding to ZP, as well as undergoing acrosomal exocytosis and penetrating the oocyte ZP^11. IVC-induced protein tyrosine phosphorylation changes are shown in FIG. 3; acrosomal status and plasma membrane changes are shown in FIG. 4A and FIG. 4B. Briefly, spermatozoa were washed of seminal plasma once with noncapacitating media (NCM), a modified TL-HEPES medium, free of calcium dichloride (CaCl2) and addition of 11 mM D-glucose, with pH adjusted to 7.2. Spermatozoa were then resuspended in 0.5 mL in vitro capacitation (IVC) media, TL-HEPES-PVA supplemented with 5 mM sodium pyruvate, 11 mM D-glucose, 2 mM CaCl2, 2 mM sodium bicarbonate, and 2% (m/v) bovine serum albumin, and incubated in a 37° C. water bath for 4 hours, with sperm rotation performed every 60 minutes. Control incubations under non-IVC conditions used NCM. Proteasome inhibitors (100 μM MG-132 and 10 μM Epox/CLBL/MG-132) were mixed with IVC media prior to sperm pellet resuspension. 100 μM M MG-132 and ‘100 μM’ vehicle contained 0.5% (v/v) DMSO. 10 μM Epox/CLBL/MG-132 and ‘10 μM’ vehicle contained 0.3% (v/v) DMSO. PVA (polyvinyl alcohol) helped to reduce sperm aggregation and spermatozoa were pipetted repeatedly to dissociate sperm aggregates in a satisfactory manner prior to IBFC data acquisition. To confirm normal capacitation in the experimental IVC media, compared to 15 mM sodium bicarbonate IVC media, normal hyperactivation status was recorded and tyrosine phosphorylation status was normal (FIG. 3). Unlike murine or rodent sperm tyrosine phosphorylation, porcine tyrosine phosphorylation is much more modest, with less prominent changes during the course of capacitation. Therefore new bands after capacitation appear only at the molar weights of 32 kDa (acrosin binding protein), and 21 kDa protein (phospholipid hydroperoxide glutathione peroxidase). […] Final acrosome and plasma membrane modification status is similar at end of IVC regardless of the two IVC treatment conditions; however, the rate of change and cell death is faster in 15 mM sodium bicarbonate containing medium than experimental IVC medium (FIGS. 4A and 4B).\n(§1) Upon 4 hours of IVC, sample size of 100 μL (4 million spermatozoa) were incubated 30 minutes with 1:200 H33342, 1:200 PI, and 1:100 FZ3 for epifluorescence microscopy. Lower probe concentrations were necessary for IBFC due to camera detection differences, thus 1:1000, 1:1000, and 1:500 were used, respectively, with inclusion of 1:1000 PNA-AF647. For Fluo-4 calcium probe, we followed manufacturer protocol using identical cell concentrations.\nIBFC data acquisition was performed following previous methodology^56. Specifically, using a FlowSight flow cytometer (FS) fitted with a 20× microscope objective (numerical aperture of 0.9) with an imaging rate up to 2000 events per sec. The sheath fluid was PBS (without Ca^2+ or Mg^2+). The flow-core diameter and speed was 10 μm and 66 mm per sec, respectively. Raw image data were acquired using INSPIRE® software. To produce the highest resolution, the camera setting was at 1.0 μm per pixel of the charged-coupled device. In INSPIRE® FS data acquisition software, two brightfield channels were collected (channels 1 & 9), one FZ3 image (channel 2), one PI image (channel 5), one side scatter (SSC; channel 6), one H33342 (channel 7), and one PNA-AF647 image (channel 11), with a minimum of 10,000 spermatozoa collected. The following lasers and power settings were used: 405 nm (to excite H33342): 10 mW; 488 nm (to excite FZ3): 60 mW; 561 nm (to excite PI): 40 mW, 642 nm (to excite PNA-AF647): 25 mW; and 785 nM SSC laser: 10 mW.\nData were analyzed using IDEAS® analysis software from AMNIS EMD Millipore. Gating approach used standard focus and single cell gating calculations created by IDEAS software (FIG. 2A, left and middle panels). […]"}, "boar spermatozoa [2]": {"tested_on": "boar spermatozoa", "test": "TPEN Zn chelation of spermatozoa, FZ3 zinc probe and Fluo-4 calcium probe fluorescence", "type": "cell-based, Sus scrofa", "settings": "10 μM, 40 million sperm per mL, 1 hour", "experimental": "Zn^2+ chelation was performed using TPEN (membrane permeable). 10 μM TPEN was incubated with 40 million sperm per mL for 1 hour. Stock TPEN: 1 mM in 1:100 EtOH:H2O.\nas §1\nIBFC data acquisition was performed following previous methodology^56. […]\nData were analyzed using IDEAS® analysis software from AMNIS EMD Millipore. […] Events in focus were further gated to analyze only a single spermatozoa by plotting H33342 fluorescence area by aspect ratio (FIG. 2A, middle panel). […] Such mask was created by taking a morphology mask of the brightfield (FIG. 2B, first column), subtracting a 4-pixel dilation of H33342 (FIG. 2B, second column), resulting in a mask to analyze fluorescence in the tail region only (FIG. 2B, third and fourth columns). […] This combined gating and masking strategy shown in FIG. 2C provided robust clean data, ready for signature analysis by plotting FZ3 intensity of this masked region, which is impossible with traditional flow cytometry. […]"}, "[3]": {"settings": "100 μM in IVC media, 4 hours 37° C., pre-sperm rich fraction, mean±s.e.m., 3 biological replicates, 10,000 cells"}}, "note": "Residues, ends and D or L forms follow the SMILES beside them. *: point of attachment. Cbz = O=C(OCc1ccccc1)*", "data": [{"compound": "[Cl-].[Cl-].[Zn+2]", "note": "[ZnCl2, zinc chloride]", "values": [{"measurement": "Zinc signature after IVC with exogenous zinc", "setting": "boar spermatozoa [1]; 1 mM added to IVC medium", "result": "retained signature 1"}]}, {"compound": "c1ccc(CN(CCN(Cc2ccccn2)Cc2ccccn2)Cc2ccccn2)nc1", "note": "[TPEN, N,N,N′,N′-Tetrakis(2-pyridinylmethyl)-1,2-ethanediamine]", "values": [{"measurement": "FZ3 fluorescence / zinc signature after Zn chelation, compared to vehicle", "setting": "boar spermatozoa [2]", "result": "removed a majority of FZ3 fluorescence to signature 3 and 4 states"}, {"measurement": "Fluo-4 calcium probe intensity compared to vehicle", "setting": "boar spermatozoa [2]", "result": "did not reduce Fluo-4 calcium probe intensity"}]}, {"compound": "CC(C)C[C@@H](C=O)NC(=O)[C@H](CC(C)C)NC(=O)[C@H](CC(C)C)NC(=O)OCc1ccccc1", "note": "[MG132] (Cbz-Leu-Leu-Leu-aldehyde)", "values": [{"measurement": "Signature 1 (portion of spermatozoa with zinc signature 1)", "setting": "boar spermatozoa [1]; [3]", "result": "30.8% ± 13.1%^B"}, {"measurement": "Signature 2 (portion of spermatozoa with zinc signature 2)", "setting": "boar spermatozoa [1]; [3]", "result": "32.9% ± 19.5%"}, {"measurement": "Signature 3 (portion of spermatozoa with zinc signature 3)", "setting": "boar spermatozoa [1]; [3]", "result": "31.0% ± 4.9%^B"}, {"measurement": "Signature 4 (portion of spermatozoa with zinc signature 4)", "setting": "boar spermatozoa [1]; [3]", "result": "5.4% ± 4.9%^AB"}, {"measurement": "Retention of zinc signature 1 during IVC as compared to IVC+vehicle", "setting": "boar spermatozoa [1]; added to IVC conditions, pre-sperm rich fraction, P=0.0271 (signatures 1 & 2 combined P=0.0008)", "result": "significantly higher portion of spermatozoa retained signature 1"}]}]}
